Assays:
MEC1 (CLL) cell line = assay: MTT antiproliferation combination assay, Chou-Talalay Combination Index, MEC1; assay type: cell-based; conditions: HDAC inhibitor in combination with Compound 1, 72 hours
Description: (§1) Cell lines from different haematological malignancies were exposed to increasing doses of Compound 1, to increasing doses of HDAC inhibitor, and to increasing doses of the combination of Compound 1 and HDAC inhibitor. Compound 1 and Vorinostat were used at a maximum concentration of 10 μM, following an eight fold dose response design based on 1:3 compound dilutions plus an untreated control. Belinostat was used at a maximum concentration of 10 μM, following an eight fold dose response design based on 1:4 compound dilutions plus an untreated control.
(§2) Cells were incubated for 72 hours at 37° C. and 5% CO2. The antiproliferative effect of single and combination treatments were determined by adding 20 μL MTT [3-(4,5-dimethylthiazolyl-2)-2,5-diphenyltetrazoliumbromide] reagent (Sigma Aldrich, Buchs, Switzerland) to each well and the plates were incubated at 37° C. for 4 hours, followed by adding 50 μL of sodium dodecyl sulfate (SDS) (250 µM SDS, 0.21% fuming HCl) lysis buffer. The lysed cells were kept overnight, and then the absorbance was read at 570 nm using the Cytation 3 instrument (BioTek, Winoosku, VT, USA). The effect of the combinations was determined according to the Chou-Talalay Combination Index (CI) (Chou 2008, Chou 2010) and calculated with the Synergy R package (Lee 2007). […]

Farage (DLBCL) cell line = assay: MTT antiproliferation combination assay, Chou-Talalay Combination Index, Farage; assay type: cell-based; conditions: HDAC inhibitor in combination with Compound 1, 72 hours
Description: as §1, §2

[1] = test system: A20 (murine B-cell lymphoma) cell line; assay: MTT antiproliferation combination assay, Chou-Talalay Combination Index, A20; assay type: cell-based; conditions: HDAC inhibitor in combination with Compound 1, 72 hours
Description: as §1, §2

TMD8 (DLBCL) cell line = assay: MTT antiproliferation combination assay, Chou-Talalay Combination Index, TMD8; assay type: cell-based; conditions: HDAC inhibitor in combination with Compound 1, 72 hours
Description: as §1, §2

JVM2 (MCL) cell line = assay: MTT antiproliferation combination assay, Chou-Talalay Combination Index, JVM2; assay type: cell-based; conditions: HDAC inhibitor in combination with Compound 1, 72 hours
Description: as §1, §2

DNMT = conditions: more than that of azacytidine; cited from earlier work
[2] = clinical use of Vorinostat; cited from earlier work

SMILES	Cl value (median) (MEC1 (CLL) cell line)	Cl value (median) (Farage (DLBCL) cell line)	Cl value (median) [1]	Cl value (median) (TMD8 (DLBCL) cell line)	Cl value (median) (JVM2 (MCL) cell line)	inhibitory activity of DNMT relative to azacytidine (DNMT) [times]	pulmonary embolism (thromboembolic, most common life-threatening event) [2] [%]
O=C(/C=C/c1cccc(S(=O)(=O)Nc2ccccc2)c1)NO [Belinostat, (2E)-N-Hydroxy-3-[3-(phenylsulfamoyl)phenyl]prop-2-enamide]	0.45	0.51	0.87	0.87	0.62		
Nc1ncn([C@H]2C[C@H](O)[C@@H](CO)O2)c(=O)n1 [Decitabine, 5-aza-2′-deoxycytidine]						30	
O=C(CCCCCCC(=O)Nc1ccccc1)NO [Vorinostat, N-Hydroxy-N′-phenyloctanediamide]	0.83	0.69			0.71		4

Reference: patent publication US20260240863A1, “COMBINATION OF ROGINOLISIB AND HDAC INHIBITOR IN THE TREATMENT OF HAEMATOLOGICAL MALIGNANCY” (IONCTURA SA, priority 2023, published 2026)
